Activity calls are given as the source filed them. The rule behind the calls is not given here.
What was measured:
[1] = biological target: Human immunodeficiency virus type 1 integrase (Human immunodeficiency virus 1) (UniProt Q7ZJM1); assay: Inhibition of HIV1 integrase at 1 ug/ml by scintillation proximity assay
[2] = biological target: T1, Neuropeptide Y receptor type 1 (Rattus norvegicus, UniProt P21555); assay: (§1) Displacement of [3H]NPY from neuropeptide Y receptor in rat cerebral cortices
T1 sequence (P21555 whole entry): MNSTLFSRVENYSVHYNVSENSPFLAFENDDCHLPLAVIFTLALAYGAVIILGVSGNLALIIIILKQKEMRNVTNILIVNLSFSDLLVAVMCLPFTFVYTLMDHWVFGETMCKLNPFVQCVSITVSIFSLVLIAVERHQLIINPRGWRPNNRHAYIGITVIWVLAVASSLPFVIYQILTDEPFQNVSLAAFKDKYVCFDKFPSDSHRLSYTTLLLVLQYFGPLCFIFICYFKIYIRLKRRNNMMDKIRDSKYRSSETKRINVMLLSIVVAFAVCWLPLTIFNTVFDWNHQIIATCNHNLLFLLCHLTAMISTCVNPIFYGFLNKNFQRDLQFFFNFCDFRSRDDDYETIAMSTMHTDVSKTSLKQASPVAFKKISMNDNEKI

[3] = biological target: Receptor tyrosine-protein kinase erbB-2 (Homo sapiens, UniProt P04626); assay: Inhibition of HER2 overexpressed in mouse 3T3 cells by ELISA; assay type: cell-based, NIH3T3; details: for Activity: NIH3T3
Receptor tyrosine-protein kinase erbB-2, sequence (P04626 whole entry): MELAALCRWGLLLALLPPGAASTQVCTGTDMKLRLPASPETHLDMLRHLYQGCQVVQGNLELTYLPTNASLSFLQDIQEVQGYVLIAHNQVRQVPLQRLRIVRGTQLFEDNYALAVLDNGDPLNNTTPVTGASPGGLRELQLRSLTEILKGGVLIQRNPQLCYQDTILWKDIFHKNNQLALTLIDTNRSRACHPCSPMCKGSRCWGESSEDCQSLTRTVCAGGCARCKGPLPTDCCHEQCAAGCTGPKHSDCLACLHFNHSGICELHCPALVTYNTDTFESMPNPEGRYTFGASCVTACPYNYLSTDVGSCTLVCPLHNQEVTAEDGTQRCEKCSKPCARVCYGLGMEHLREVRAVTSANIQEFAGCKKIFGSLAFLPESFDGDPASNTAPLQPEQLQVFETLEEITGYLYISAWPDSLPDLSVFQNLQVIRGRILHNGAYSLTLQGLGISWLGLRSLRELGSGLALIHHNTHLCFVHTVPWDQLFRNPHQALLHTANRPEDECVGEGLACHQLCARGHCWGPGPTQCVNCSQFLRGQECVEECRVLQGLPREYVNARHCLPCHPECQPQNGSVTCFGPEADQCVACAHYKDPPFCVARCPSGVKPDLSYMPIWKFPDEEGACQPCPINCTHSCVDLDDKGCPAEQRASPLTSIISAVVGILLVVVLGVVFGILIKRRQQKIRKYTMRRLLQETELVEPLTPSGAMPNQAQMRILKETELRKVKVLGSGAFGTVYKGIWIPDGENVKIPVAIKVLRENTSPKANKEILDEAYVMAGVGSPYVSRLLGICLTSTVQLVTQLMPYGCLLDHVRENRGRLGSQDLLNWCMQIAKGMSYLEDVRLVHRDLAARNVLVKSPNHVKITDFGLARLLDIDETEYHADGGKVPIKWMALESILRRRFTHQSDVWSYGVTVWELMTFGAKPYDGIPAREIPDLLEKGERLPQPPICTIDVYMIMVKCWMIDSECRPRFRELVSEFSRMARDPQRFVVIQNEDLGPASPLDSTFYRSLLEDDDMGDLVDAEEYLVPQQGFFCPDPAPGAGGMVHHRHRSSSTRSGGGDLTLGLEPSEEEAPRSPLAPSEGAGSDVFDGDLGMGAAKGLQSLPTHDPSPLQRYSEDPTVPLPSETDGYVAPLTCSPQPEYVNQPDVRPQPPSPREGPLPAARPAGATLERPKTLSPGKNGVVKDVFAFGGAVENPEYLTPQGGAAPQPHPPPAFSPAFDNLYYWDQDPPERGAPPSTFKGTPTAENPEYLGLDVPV

[4] = biological target: Human immunodeficiency virus type 1 integrase (Human immunodeficiency virus 1) (UniProt Q7ZJM1); assay: Inhibition of HIV1 integrase at 5 ug/ml by scintillation proximity assay
[5] = Binding affinity to neurotensin receptor
[6] = biological target: T2, Neuropeptide Y receptor type 1 (Rattus norvegicus) (UniProt P21555); assay: as §1
T2 sequence (whole entry): T1 sequence (P21555 whole entry)

[7] = Binding affinity to galanin receptor
[8] = biological target: T3, B2 bradykinin receptor (Homo sapiens) (UniProt P30411); assay: Displacement of [3H]bradykinin from human bradykinin B2 receptor expressed in baculovirus-infected SF21 cells
T3 sequence (whole entry): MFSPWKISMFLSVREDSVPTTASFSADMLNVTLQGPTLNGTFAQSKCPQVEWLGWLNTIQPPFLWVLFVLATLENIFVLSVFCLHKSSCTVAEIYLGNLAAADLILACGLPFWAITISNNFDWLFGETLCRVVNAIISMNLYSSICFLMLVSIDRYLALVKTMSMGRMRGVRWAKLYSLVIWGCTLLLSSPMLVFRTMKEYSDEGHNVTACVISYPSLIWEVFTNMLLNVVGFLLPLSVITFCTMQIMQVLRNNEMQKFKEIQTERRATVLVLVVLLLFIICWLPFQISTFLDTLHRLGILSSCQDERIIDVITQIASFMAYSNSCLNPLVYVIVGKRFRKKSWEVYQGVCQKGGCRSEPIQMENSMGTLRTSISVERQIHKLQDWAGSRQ

[9] = biological target: T4, Neuromedin-K receptor (Homo sapiens) (UniProt P29371); assay: Binding affinity to NK3 receptor
T4 sequence (whole entry): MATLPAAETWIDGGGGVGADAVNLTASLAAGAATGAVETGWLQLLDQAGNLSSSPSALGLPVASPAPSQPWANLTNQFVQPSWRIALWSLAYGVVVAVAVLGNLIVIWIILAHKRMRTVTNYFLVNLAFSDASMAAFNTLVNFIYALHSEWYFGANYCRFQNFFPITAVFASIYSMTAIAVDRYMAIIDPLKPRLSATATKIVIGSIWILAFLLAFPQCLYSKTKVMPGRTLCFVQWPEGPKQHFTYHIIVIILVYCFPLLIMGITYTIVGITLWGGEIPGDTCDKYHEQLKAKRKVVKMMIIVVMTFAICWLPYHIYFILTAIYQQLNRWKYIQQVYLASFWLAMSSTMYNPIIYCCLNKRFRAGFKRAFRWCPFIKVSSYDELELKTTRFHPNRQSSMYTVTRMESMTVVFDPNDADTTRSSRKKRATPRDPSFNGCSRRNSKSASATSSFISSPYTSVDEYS

[10] = biological target: T5, VIP peptides (Homo sapiens) (UniProt P01282); assay: Binding affinity to vasoactive intestinal peptide
T5 sequence (whole entry): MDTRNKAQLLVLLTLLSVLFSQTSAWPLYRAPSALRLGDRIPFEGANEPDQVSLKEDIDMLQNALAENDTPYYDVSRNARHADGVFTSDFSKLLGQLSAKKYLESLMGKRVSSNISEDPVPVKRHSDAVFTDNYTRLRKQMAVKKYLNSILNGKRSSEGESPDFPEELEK

Rattus norvegicus = species: Rattus norvegicus; assay: Displacement of radioiodinated somatostatins from rat somatostatin receptor

Human immunodeficiency virus type 1 integrase (Human immunodeficiency virus 1), sequence (Q7ZJM1 as listed by the source): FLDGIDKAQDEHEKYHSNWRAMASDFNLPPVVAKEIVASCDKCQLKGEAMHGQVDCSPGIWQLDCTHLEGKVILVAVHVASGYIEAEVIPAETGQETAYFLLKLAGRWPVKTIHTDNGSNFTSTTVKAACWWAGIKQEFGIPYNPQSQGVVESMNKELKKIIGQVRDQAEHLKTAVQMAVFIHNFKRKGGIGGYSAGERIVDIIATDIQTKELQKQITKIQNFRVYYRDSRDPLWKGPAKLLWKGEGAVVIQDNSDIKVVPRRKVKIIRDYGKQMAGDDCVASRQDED

Row | SMILES | inhibition [1] [%] | IC50 [2] [µM] | IC50 [3] [µM] | Activity [4] | Activity [5] | Activity [1] | Activity [6] | Activity [7] | Activity [8] | Activity [3] | Activity [9] | Activity [10] | Activity (Rattus norvegicus) | inhibition [4] [%]
1 | CC(C)=CCC/C(C)=C/CC/C(C)=C/CC/C(C)=C/CC/C(C)=C/Cc1cc(OS(=O)(=O)O)ccc1O | 65 | 91.9 | 14.5 | – | – | – | – | – | – | – | – | – | – | –
2 | CC(C)=CCC/C(C)=C/CC/C(C)=C/CC/C(C)=C/CC/C(C)=C/CC/C(C)=C/CC/C(C)=C/Cc1cc(OS(=O)(=O)O)ccc1O | – | – | 11.6 | – | – | – | – | – | – | – | – | – | – | –
3 | CC(C)=CCC/C(C)=C/CC/C(C)=C/CC/C(C)=C/CC/C(C)=C/CCC1(C)C=Cc2cc(O)ccc2O1 (configuration not stated) | – | – | – | inactive | inactive | inactive | inactive | inactive | inactive | inactive | inactive | inactive | inactive | –
4 | CC(C)=CCC/C(C)=C/CC/C(C)=C/CC/C(C)=C/CC/C(C)=C/CC/C(C)=C/CCC1(C)C=Cc2cc(O)ccc2O1 (configuration not stated) | – | – | – | inactive | inactive | inactive | inactive | inactive | inactive | inactive | inactive | inactive | inactive | –
5 | CC(C)=CCC/C(C)=C/CC/C(C)=C/CC/C(C)=C/CC/C(C)=C/CC/C(C)=C/Cc1cc(OS(=O)(=O)O)ccc1O | – | – | 6.44 | – | – | – | – | – | – | – | – | – | – | –
6 | CC(C)=CCC/C(C)=C/CC/C(C)=C/CC/C(C)=C/CC/C(C)=C/CC/C(C)=C/CC/C(=C/Cc1cc(O)ccc1O)CO | – | – | 9.79 | – | – | – | – | – | – | – | – | – | – | 45
7 | CC(C)=CCC/C(C)=C/CC/C(C)=C/CC/C(C)=C/CCC1(C)C=Cc2cc(O)ccc2O1 (configuration not stated) | – | – | – | inactive | inactive | inactive | inactive | inactive | inactive | inactive | inactive | inactive | inactive | –

— ChEMBL document CHEMBL1159294, “Bioactive Prenylhydroquinone Sulfates and a Novel C 31 Furanoterpene Alcohol Sulfate from the Marine Sponge, Ircinia Sp” (J Nat Prod, 1995)
